# Laboratory results taken from patent US9963442B2, “Pyridones as herbicides” (E I DU PONT DE NEMOURS AND COMPANY, priority 2014, dated 2018).
# Tests used:
# Type in all cases: in vivo
# [1] = test system: barnyardgrass (Echinochloa crus-galli); test: Test B flooded paddy test; design: key: 0 = no effect, 100 = complete control; conditions: Flood, 250 g ai/ha applied to paddy water at 2-leaf stage; visually evaluated after 13 to 15 days; scale 0 (no effect) to 100 (complete control)
# Protocol: (§1) Plant species in the flooded paddy test selected from rice (Oryza sativa), sedge, umbrella (small-flower umbrella sedge, Cyperus difformis), ducksalad (Heteranthera limosa), and barnyardgrass (Echinochloa crus-galli) were grown to the 2-leaf stage for testing. At time of treatment, test pots were flooded to 3 cm above the soil surface, treated by application of test compounds directly to the paddy water, and then maintained at that water depth for the duration of the test. Treated plants and controls were maintained in a greenhouse for 13 to 15 days, after which time all species were compared to controls and visually evaluated. Plant response ratings, summarized in Table B, are based on a scale of 0 to 100 where 0 is no effect and 100 is complete control. A dash (-) response means no test result.
# [2] = test system: sedge, umbrella (small-flower umbrella sedge, Cyperus difformis); test: Test B flooded paddy test; design: key: 0 = no effect, 100 = complete control; conditions: Flood, 250 g ai/ha applied to paddy water at 2-leaf stage; visually evaluated after 13 to 15 days; scale 0 (no effect) to 100 (complete control)
# Protocol: as §1
# rice (Oryza sativa) = test: Test B flooded paddy test; design: key: 0 = no effect, 100 = complete control; conditions: Flood, 250 g ai/ha applied to paddy water at 2-leaf stage; visually evaluated after 13 to 15 days; scale 0 (no effect) to 100 (complete control)
# Protocol: as §1
# [3] = test system: ducksalad (Heteranthera limosa); test: Test B flooded paddy test; design: key: 0 = no effect, 100 = complete control; conditions: Flood, 250 g ai/ha applied to paddy water at 2-leaf stage; visually evaluated after 13 to 15 days; scale 0 (no effect) to 100 (complete control)
# Protocol: as §1
# [4] = test system: barnyardgrass (Echinochloa crus-galli); test: Test A postemergence application; conditions: approx. 10 days
# Text: (§2) Seeds of plant species selected from barnyardgrass (Echinochloa crus-galli), kochia (Kochia scoparia), ragweed (common ragweed, Ambrosia elatior), Italian ryegrass (Lolium multiflorum), giant foxtail (Setaria faberii), and pigweed (Amaranthus retroflexus) were planted into a blend of loam soil and sand and treated preemergence with a directed soil spray using test chemicals formulated in a non-phytotoxic solvent mixture which included a surfactant. At the same time, plants selected from these weed species and also wheat (Triticum aestivum), corn (Zea mays), blackgrass (Alopecurus myosuroides), and galium (catchweed bedstraw, Galium aparine) were planted in pots containing the same blend of loam soil and sand and treated with postemergence applications of test chemicals formulated in the same manner. Plants ranged in height from 2 to 10 cm and were in the one- to two-leaf stage for the postemergence treatment. Treated plants and untreated controls were maintained in a greenhouse for approximately 10 days, after which time all treated plants were compared to untreated controls and visually evaluated for injury. Plant response ratings, summarized in Table A, are based on a 0 to 100 scale where 0 is no effect and 100 is complete control. A dash (-) response means no test result.
# corn (Zea mays) = test: Test A postemergence application; conditions: approx. 10 days
# Text: as §2
# [5] = test system: pigweed (Amaranthus retroflexus); test: Test A postemergence application; conditions: approx. 10 days
# Text: as §2
# kochia (Kochia scoparia) [6] = test: Test A postemergence application; conditions: approx. 10 days
# Text: as §2
# [7] = test system: blackgrass (Alopecurus myosuroides); test: Test A postemergence application; conditions: approx. 10 days
# Text: as §2
# [8] = test system: wheat (Triticum aestivum); test: Test A postemergence application; conditions: approx. 10 days
# Text: as §2
# [9] = test system: ragweed (common ragweed, Ambrosia elatior); test: Test A postemergence application; conditions: approx. 10 days
# Text: as §2
# [10] = test system: galium (catchweed bedstraw, Galium aparine); test: Test A postemergence application; conditions: approx. 10 days
# Text: as §2
# [11] = test system: giant foxtail (Setaria faberii); test: Test A postemergence application; conditions: approx. 10 days
# Text: as §2
# [12] = test system: Italian ryegrass (Lolium multiflorum); test: Test A postemergence application; conditions: approx. 10 days
# Text: as §2
# [13] = test system: barnyardgrass (Echinochloa crus-galli); test: Test A preemergence, directed soil spray; conditions: approx. 10 days
# Text: as §2
# [14] = test system: pigweed (Amaranthus retroflexus); test: Test A preemergence, directed soil spray; conditions: approx. 10 days
# Text: as §2
# kochia (Kochia scoparia) [15] = test: Test A preemergence, directed soil spray; conditions: approx. 10 days
# Text: as §2
# [16] = test system: ragweed (common ragweed, Ambrosia elatior); test: Test A preemergence, directed soil spray; conditions: approx. 10 days
# Text: as §2
# [17] = test system: giant foxtail (Setaria faberii); test: Test A preemergence, directed soil spray; conditions: approx. 10 days
# Text: as §2
# [18] = test system: Italian ryegrass (Lolium multiflorum); test: Test A preemergence, directed soil spray; conditions: approx. 10 days
# Text: as §2
compound,measurement,setting,value
"O=c1cccc(Oc2ncc(Cl)cn2)n1-c1cccc(C(F)(F)F)c1 [Compound 2, 6-[(5-chloro-2-pyrimidinyl)oxy]-1-[3-(trifluoromethyl)phenyl]-2(1H)-pyridinone]","Plant response rating, Barnyardgrass",[1],0
same,"Plant response rating, Sedge, Umbrella",[2],0
same,"Plant response rating, Rice",rice (Oryza sativa),0
same,"Plant response rating, Ducksalad",[3],0
same,"Plant response rating (0 to 100 scale, 0 no effect, 100 complete control), Barnyardgrass",[4]; 125 g ai/ha,0
same,"Plant response rating (0 to 100 scale, 0 no effect, 100 complete control), Barnyardgrass",[4]; 500 g ai/ha,0
same,"Plant response rating (0 to 100 scale, 0 no effect, 100 complete control), Corn",corn (Zea mays); 125 g ai/ha,0
same,"Plant response rating (0 to 100 scale, 0 no effect, 100 complete control), Corn",corn (Zea mays); 500 g ai/ha,20
same,"Plant response rating (0 to 100 scale, 0 no effect, 100 complete control), Pigweed",[5]; 125 g ai/ha,30
same,"Plant response rating (0 to 100 scale, 0 no effect, 100 complete control), Pigweed",[5]; 500 g ai/ha,80
same,"Plant response rating (0 to 100 scale, 0 no effect, 100 complete control), Kochia",kochia (Kochia scoparia) [6]; 125 g ai/ha,30
same,"Plant response rating (0 to 100 scale, 0 no effect, 100 complete control), Kochia",kochia (Kochia scoparia) [6]; 500 g ai/ha,90
same,"Plant response rating (0 to 100 scale, 0 no effect, 100 complete control), Blackgrass",[7]; 125 g ai/ha,0
same,"Plant response rating (0 to 100 scale, 0 no effect, 100 complete control), Blackgrass",[7]; 500 g ai/ha,0
same,"Plant response rating (0 to 100 scale, 0 no effect, 100 complete control), Wheat",[8]; 125 g ai/ha,0
same,"Plant response rating (0 to 100 scale, 0 no effect, 100 complete control), Wheat",[8]; 500 g ai/ha,20
same,"Plant response rating (0 to 100 scale, 0 no effect, 100 complete control), Ragweed",[9]; 125 g ai/ha,0
same,"Plant response rating (0 to 100 scale, 0 no effect, 100 complete control), Ragweed",[9]; 500 g ai/ha,0
same,"Plant response rating (0 to 100 scale, 0 no effect, 100 complete control), Galium",[10]; 125 g ai/ha,20
same,"Plant response rating (0 to 100 scale, 0 no effect, 100 complete control), Galium",[10]; 500 g ai/ha,60
same,"Plant response rating (0 to 100 scale, 0 no effect, 100 complete control), Foxtail, Giant",[11]; 125 g ai/ha,0
same,"Plant response rating (0 to 100 scale, 0 no effect, 100 complete control), Foxtail, Giant",[11]; 500 g ai/ha,60
same,"Plant response rating (0 to 100 scale, 0 no effect, 100 complete control), Ryegrass, Italian",[12]; 125 g ai/ha,0
same,"Plant response rating (0 to 100 scale, 0 no effect, 100 complete control), Ryegrass, Italian",[12]; 500 g ai/ha,0
same,"Plant response rating (0 to 100 scale, 0 no effect, 100 complete control), Barnyardgrass",[13]; 125 g ai/ha,0
same,"Plant response rating (0 to 100 scale, 0 no effect, 100 complete control), Barnyardgrass",[13]; 500 g ai/ha,0
same,"Plant response rating (0 to 100 scale, 0 no effect, 100 complete control), Pigweed",[14]; 125 g ai/ha,0
same,"Plant response rating (0 to 100 scale, 0 no effect, 100 complete control), Pigweed",[14]; 500 g ai/ha,20
same,"Plant response rating (0 to 100 scale, 0 no effect, 100 complete control), Kochia",kochia (Kochia scoparia) [15]; 125 g ai/ha,0
same,"Plant response rating (0 to 100 scale, 0 no effect, 100 complete control), Kochia",kochia (Kochia scoparia) [15]; 500 g ai/ha,30
same,"Plant response rating (0 to 100 scale, 0 no effect, 100 complete control), Ragweed",[16]; 125 g ai/ha,0
same,"Plant response rating (0 to 100 scale, 0 no effect, 100 complete control), Ragweed",[16]; 500 g ai/ha,0
same,"Plant response rating (0 to 100 scale, 0 no effect, 100 complete control), Foxtail, Giant",[17]; 125 g ai/ha,0
same,"Plant response rating (0 to 100 scale, 0 no effect, 100 complete control), Foxtail, Giant",[17]; 500 g ai/ha,90
same,"Plant response rating (0 to 100 scale, 0 no effect, 100 complete control), Ryegrass, Italian",[18]; 125 g ai/ha,0
same,"Plant response rating (0 to 100 scale, 0 no effect, 100 complete control), Ryegrass, Italian",[18]; 500 g ai/ha,0
"O=c1cccc(Oc2ncc(Cl)cn2)n1-c1cccc(OC(F)(F)F)c1 [Compound 3, 6-[(5-chloro-2-pyrimidinyl)oxy]-1-[3-(trifluoromethoxy)phenyl]-2(1H)-pyridinone]","Plant response rating, Barnyardgrass",[1],0
same,"Plant response rating, Sedge, Umbrella",[2],0
same,"Plant response rating, Rice",rice (Oryza sativa),0
same,"Plant response rating, Ducksalad",[3],0
same,"Plant response rating (0 to 100 scale, 0 no effect, 100 complete control), Barnyardgrass",[4]; 1000 g ai/ha,70
same,"Plant response rating (0 to 100 scale, 0 no effect, 100 complete control), Corn",corn (Zea mays); 1000 g ai/ha,20
same,"Plant response rating (0 to 100 scale, 0 no effect, 100 complete control), Pigweed",[5]; 1000 g ai/ha,90
same,"Plant response rating (0 to 100 scale, 0 no effect, 100 complete control), Kochia",kochia (Kochia scoparia) [6]; 1000 g ai/ha,90
same,"Plant response rating (0 to 100 scale, 0 no effect, 100 complete control), Blackgrass",[7]; 1000 g ai/ha,40
same,"Plant response rating (0 to 100 scale, 0 no effect, 100 complete control), Wheat",[8]; 1000 g ai/ha,30
same,"Plant response rating (0 to 100 scale, 0 no effect, 100 complete control), Ragweed",[9]; 1000 g ai/ha,30
same,"Plant response rating (0 to 100 scale, 0 no effect, 100 complete control), Galium",[10]; 1000 g ai/ha,100
same,"Plant response rating (0 to 100 scale, 0 no effect, 100 complete control), Foxtail, Giant",[11]; 1000 g ai/ha,100
same,"Plant response rating (0 to 100 scale, 0 no effect, 100 complete control), Ryegrass, Italian",[12]; 1000 g ai/ha,30
same,"Plant response rating (0 to 100 scale, 0 no effect, 100 complete control), Barnyardgrass",[13]; 1000 g ai/ha,80
same,"Plant response rating (0 to 100 scale, 0 no effect, 100 complete control), Pigweed",[14]; 1000 g ai/ha,70
same,"Plant response rating (0 to 100 scale, 0 no effect, 100 complete control), Kochia",kochia (Kochia scoparia) [15]; 1000 g ai/ha,40
same,"Plant response rating (0 to 100 scale, 0 no effect, 100 complete control), Ragweed",[16]; 1000 g ai/ha,20
same,"Plant response rating (0 to 100 scale, 0 no effect, 100 complete control), Foxtail, Giant",[17]; 1000 g ai/ha,100
same,"Plant response rating (0 to 100 scale, 0 no effect, 100 complete control), Ryegrass, Italian",[18]; 1000 g ai/ha,50
